Read-outs that look alike come from different tables or passages of the source.
Experiments:
normal L6 rat myoblasts = assay: MTT cell viability assay, normal L6 cells; assay type: cell-based; details: mean ± SD, n = 3, read-out: Anticancer Activity IC50, L6
Protocol: (§1) MCF7, SW480 and normal L6 muscle cells were bought from the ATCC company, USA [34]. MCF7 and SW480 adenocarcinoma cell lines were cultured, respectively, using Dulbecco’s Modified Eagle Medium (DMEM with 4.5 g/L glucose; HIMEDIA, Mumbai, India) supplemented with 100 U/mL penicillin, 100 µg/mL of streptomycin and 10% fetal bovine serum (FBS; Cat No. FBSEU500; Tico Europe, Amstelveen, The Netherlands) under standard conditions until the desired confluency was reached. Once the desired cell confluency of 70–80% was observed, the cells were sub-cultured through trypsinization, and the cell count was calculated prior to seeding in the 96-well microplate. Similarly, L6 rat myoblasts were cultured accordingly as normal cell lines to compare against MCF7 and SW480 cell lines during the MTT cell viability assay.
(§2) Cells were seeded in a 96-well microplate at a density of 1 × 10^4 cells per well and were allowed to adhere to the wells overnight. Subsequently, the cells were treated with varying concentrations of 12 compounds (1a,b,c–4a,b,c) along with doxorubicin as the positive control. The cells were exposed to the tested substances at concentrations ranging from 50, 25, 10, 5 and 1 μM. The treatment was conducted over three periods of 24 h, 48 h and 72 h, respectively. After the treatment period, thiazolyl blue tetrazolium bromide (MTT) solution was added to each well at a concentration of 0.5 mg/mL and incubated for 3 h in a 37 °C incubator supplemented with 5% CO2. Lastly, the spent MTT medium was removed and DMSO was added to the wells, where the purple formazan crystals were solubilized, and the intensity of the purple hue was spectrophotometrically measured at 570 nm.
(§3) All values were represented as means ± standard deviations (n = 3). The data were statistically analyzed using GraphPad Prism 10.1.0, where the IC50 values of each compound treated on different cell lines at different time points were obtained by extrapolating the logarithmic dose–response curve. The IC50 values were further subjected to one-way ANOVA analysis along with the post hoc test to determine the statistical significance between the treatment groups and the negative control (untreated cells).

SW480 colon cancer = assay: MTT cell viability assay, SW480; assay type: cell-based, human; details: for IC50: mean ± SD, n = 3, read-out: Anticancer Activity IC50, SW480; for Selectivity Index (SI), SW480: SI = IC50 L6 / IC50 SW480
Protocol: as §1
(§4) Cells were seeded in a 96-well microplate at a density of 1 × 10^4 cells per well and were allowed to adhere to the wells overnight. […] The cells were exposed to the tested substances at concentrations ranging from 50, 25, 10, 5 and 1 μM. The treatment was conducted over three periods of 24 h, 48 h and 72 h, respectively. […] Lastly, the spent MTT medium was removed and DMSO was added to the wells, where the purple formazan crystals were solubilized, and the intensity of the purple hue was spectrophotometrically measured at 570 nm.
(§5) All values were represented as means ± standard deviations (n = 3). […] The IC50 values were further subjected to one-way ANOVA analysis along with the post hoc test to determine the statistical significance between the treatment groups and the negative control (untreated cells).

MCF7 breast cancer = assay: MTT cell viability assay, MCF7; assay type: cell-based, human; details: for Selectivity Index (SI), MCF-7: SI = IC50 L6 / IC50 MCF-7; for IC50: mean ± SD, n = 3, read-out: Anticancer Activity IC50, MCF-7
Protocol: as §1, §4, §5

[1] = system: MCF7 and SW480 cancer cells; assay: MTT cell viability assay, both cancer cell lines; assay type: cell-based, human; details: breast cancer cell line MCF7 versus colon cancer cell line SW480
Protocol: as §1, §2, §3

[2] = 72 h treatment period, NA = IC50 beyond the tested concentration range (1-50 µM)
[3] = Rattus norvegicus, Myoblast, 24 h treatment period
[4] = Rattus norvegicus, Myoblast, 48 h treatment period
[5] = Rattus norvegicus, Myoblast, 72 h treatment period
[6] = Homo sapiens, SW480, 24 h treatment period
[7] = Homo sapiens, SW480, 48 h treatment period
[8] = Homo sapiens, SW480, 72 h treatment period
[9] = Homo sapiens, MCF7, 24 h treatment period
[10] = Homo sapiens, MCF7, 48 h treatment period
[11] = Homo sapiens, MCF7, 72 h treatment period, NA = IC50 beyond the tested concentration range (1-50 µM)

Row | Molecule | Selectivity Index (SI), SW480 (SW480 colon cancer; 48 h) | Selectivity Index (SI), SW480 (SW480 colon cancer; 72 h) | Selectivity Index (SI), MCF-7 (MCF7 breast cancer; 24 h) | Selectivity Index (SI), MCF-7 (MCF7 breast cancer; 48 h) | Selectivity Index (SI), MCF-7 (MCF7 breast cancer; 72 h) | Selectivity Index (SI), SW480 (SW480 colon cancer; 24 h) | IC50 (normal L6 rat myoblasts; [3]) | IC50 (normal L6 rat myoblasts; [4]) | IC50 (normal L6 rat myoblasts; [5]) | IC50 (SW480 colon cancer; [6]) | IC50 (SW480 colon cancer; [7]) | IC50 (SW480 colon cancer; [8]) | IC50 (MCF7 breast cancer; [9]) | IC50 (MCF7 breast cancer; [10]) | IC50 (MCF7 breast cancer; [11]) | melting point | other results
1 | 1,4-bis((dipyrido[2,3-b:2′,3′-e][1,4]thiazin-10-yl)methyl)benzene [3b] | 1.07 | 1.15 | 1.09 | 0.81 | 1.17 |  |  |  |  |  |  |  |  |  |  |  | IC50 (normal L6 rat myoblasts; 24 h treatment period): 20.8 ± 0.28 µM; IC50 (normal L6 rat myoblasts; 48 h treatment period): 22.7 ± 0.29 µM; IC50 (normal L6 rat myoblasts; 72 h treatment period): 22.15 ± 0.22 µM; IC50 (SW480 colon cancer; 24 h treatment period): 24.5 ± 0.26 µM; IC50 (SW480 colon cancer; 48 h treatment period): 21.19 ± 0.14 µM; IC50 (SW480 colon cancer; 72 h treatment period): 19.3 ± 0.12 µM; IC50 (MCF7 breast cancer; 24 h treatment period): 19 ± 1.23 µM; IC50 (MCF7 breast cancer; 48 h treatment period): 28 ± 0.65 µM; IC50 (MCF7 breast cancer; [2]): 18.89 ± 0.15 µM
2 | 1,4-bis((dipyrido[2,3-b:2′,3′-e][1,4]thiazin-10-yl)methyl)benzene [4b] | 1.16 | 0.54 | 1.23 | 1.27 | 0.45 | 1.21 |  |  |  |  |  |  |  |  |  |  | IC50 (normal L6 rat myoblasts; 24 h treatment period): 36.7 ± 1.03 µM; IC50 (normal L6 rat myoblasts; 48 h treatment period): 30.8 ± 0.93 µM; IC50 (normal L6 rat myoblasts; 72 h treatment period): 11.6 ± 0.47 µM; IC50 (SW480 colon cancer; 24 h treatment period): 29.1 ± 0.37 µM; IC50 (SW480 colon cancer; 48 h treatment period): 26.4 ± 0.74 µM; IC50 (SW480 colon cancer; 72 h treatment period): 21.41 ± 0.21 µM; IC50 (MCF7 breast cancer; 24 h treatment period): 29.7 ± 1.33 µM; IC50 (MCF7 breast cancer; 48 h treatment period): 24.24 ± 0.17 µM; IC50 (MCF7 breast cancer; [2]): 25.6 ± 0.35 µM
3 | c1ccc(CN2c3cccnc3Sc3cccnc32)c(CN2c3cccnc3Sc3cccnc32)c1 [1a, 1,2-bis((dipyrido[2,3-b:2′,3′-e][1,4]thiazin-10-yl)methyl)benzene] | 0.93 | 0.92 | 2.62 | 2.69 | 2.15 | 0.94 | 20.6 ± 0.29 µM | 19.1 ± 1.08 µM | 16.1 ± 0.42 µM | 21.8 ± 0.36 µM | 20.5 ± 0.79 µM | 17.5 ± 0.5 µM | 7.85 ± 1.67 µM | 7.12 ± 0.42 µM | 7.49 ± 1.13 µM | 265 to 267 °C | cytotoxicity towards MCF7 compared with SW480 (in words) [1]: higher cytotoxicity
4 | c1cnc2c(c1)Sc1ncccc1N2Cc1ccc(CN2c3cccnc3Sc3cccnc32)cc1 [1b, 1,4-bis((dipyrido[2,3-b:2′,3′-e][1,4]thiazin-10-yl)methyl)benzene] | 0.1 | 0.59 | 1.38 | 0.12 | 1.22 | 0.55 | 16 ± 0.36 µM | 1.92 ± 1.39 µM | 11.7 ± 0.59 µM | 28.7 ± 1.28 µM | 20.7 ± 1.22 µM | 19.8 ± 1.21 µM | 11.6 ± 0.15 µM | 15.9 ± 0.83 µM | 9.6 ± 0.46 µM |  | cytotoxicity towards MCF7 compared with SW480 (in words) [1]: higher cytotoxicity
5 | c1cc(CN2c3ccncc3Sc3ccncc32)nc(CN2c3ccncc3Sc3ccncc32)c1 [3c, 2,6-bis((dipyrido[3,4-b:3′,4′-e][1,4]thiazin-10-yl)methyl)pyridine] | 0.94 | 1.37 | 3.25 | 2.42 | 1.41 | 2.19 | 48.98 ± 0.33 µM | 28.4 ± 0.37 µM | 35.53 ± 0.04 µM | 22.3 ± 0.93 µM | 28.8 ± 1.55 µM | 25.9 ± 0.84 µM | 15 ± 0.73 µM | 11.7 ± 0.38 µM | 25.2 ± 1.74 µM | 245 to 247 °C | 
6 | c1ccc(CN2c3ccncc3Sc3ncccc32)c(CN2c3ccncc3Sc3ncccc32)c1 [4a, 1,2-bis((dipyrido[2,3-b:4′,3′-e][1,4]thiazin-5-yl)methyl)benzene] | 0.95 | 0.61 | 1.10 | 0.68 | 0.75 | 1.56 | 35.9 ± 0.57 µM | 22.9 ± 1.39 µM | 14.9 ± 1.15 µM | 23 ± 1.22 µM | 24.1 ± 0.66 µM | 24.4 ± 0.83 µM | 32.7 ± 2.31 µM | 33.8 ± 1.46 µM | 19.9 ± 2.36 µM | 302 to 303 °C | 
7 | COc1cccc2c1C(=O)c1c(O)c3c(c(O)c1C2=O)C[C@@](O)(C(=O)CO)C[C@@H]3O[C@H]1C[C@H](N)[C@H](O)[C@H](C)O1 [Doxorubicin, reference compound] | 0.63 | 0.28 | 0.41 | 0.25 |  | 0.85 | 11.5 ± 0.68 µM | 6.62 ± 0.18 µM | 3.07 ± 0.38 µM | 13.46 ± 0.11 µM | 10.44 ± 0.1 µM | 10.77 ± 0.07 µM | 28.4 ± 0.36 µM | 24.6 ± 2.37 µM |  |  | 
